Experimental data published in publication PMC5727059, “Antagonistic effect of dopamine structural analogues on human GABAρ1 receptor” (Scientific Reports, 2017).
Entries after “also recorded” stand apart in the source; their conditions may differ. Where two headings read alike, the source gives them in different places.

Tests used:
human GABAρ1 [1] = biological target: T1, human GABAρ1 (Homo sapiens, UniProt P24046); test: Inhibition of GABA currents by co-application of 3 µM GABA and analogue, two-microelectrode voltage clamp in X. laevis oocytes; format: cell-based; details: for extent of inhibition of GABA currents at high concentrations: maximum inhibition compared with full inhibition (100%); for Emax: read-out: Maximal effect on GABA currents, % Inh; for effect on the responses generated by 3 μM GABA: concentrations up to 20 mM, data not shown;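 for all read-outs here: oocytes expressing human GABAρ1 from injected mRNA, recorded 1–5 days later, clamped at −60 mV, room temperature, compounds bath-applied at pH 7.4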
T1 construct: expressed in transfected cells; host or cells: Xenopus laevis oocytes injected with in vitro transcribed mRNA
T1 sequence (P24046 22-479): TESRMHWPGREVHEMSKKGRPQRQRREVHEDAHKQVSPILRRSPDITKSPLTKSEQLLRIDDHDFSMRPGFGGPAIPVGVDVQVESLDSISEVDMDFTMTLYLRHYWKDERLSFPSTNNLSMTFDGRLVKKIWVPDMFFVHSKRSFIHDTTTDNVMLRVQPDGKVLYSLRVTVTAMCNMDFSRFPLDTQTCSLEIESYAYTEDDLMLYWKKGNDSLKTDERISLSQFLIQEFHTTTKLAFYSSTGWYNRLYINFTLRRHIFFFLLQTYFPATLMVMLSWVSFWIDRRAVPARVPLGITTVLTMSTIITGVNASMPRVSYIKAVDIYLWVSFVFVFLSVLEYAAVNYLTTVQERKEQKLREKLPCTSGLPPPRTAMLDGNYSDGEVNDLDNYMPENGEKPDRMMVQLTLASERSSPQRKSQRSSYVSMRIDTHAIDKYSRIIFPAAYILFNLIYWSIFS

human GABAρ1 [2] = biological target: T1, human GABAρ1; test: Current-voltage ramp (−120 to +70 mV) of GABA currents in presence of the IC50 of each compound, oocytes; format: cell-based; details: 3 µM GABA, compound at its IC50; GABA alone as reference
Description: All these compounds are ionized at pH 7.4.
Supplementary Figure S2. I/V Curves A) Current−voltage relations for GABA currents modulated in presence of DA
analogues. B). Percentage of inhibition of DA analogues (for each compound the IC50s were tested) in the currents
Reverse potentials were: -35.25 ± 1.04 mV, -35.69 ±
reverse potential was -35.07 ± 0.90 mV.
(1 picture or pasted object on this page, not shown here)

human GABAρ1 [3] = biological target: T1, human GABAρ1; test: Modulation of activated GABAρ1: analogue applied during the current plateau upon activation with 3 µM GABA, oocytes; format: cell-based; details: for Efficacy % to inhibit GABA responses: activated GABA channels (Fig. 5D empty bars), applied during 3 µM GABA perfusion
LGC-53 = LGC-53 (Caenorhabditis elegans, UniProt H2KYN9); test: cell-based; format: cell-based; details: for gating or modulation of LGC-53: high concentrations (up to 1 mM); for Emax: read-out: Maximal effect versus maximal response to DA, % current;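 for all read-outs here: LGC-53 expressed in frog oocytes, two-electrode voltage clamp at −60 mV, analogues bath-applied, full or partial agonism judged by maximal effect against DA applied before and after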
Sequence of LGC-53 (H2KYN9 entry or part of it): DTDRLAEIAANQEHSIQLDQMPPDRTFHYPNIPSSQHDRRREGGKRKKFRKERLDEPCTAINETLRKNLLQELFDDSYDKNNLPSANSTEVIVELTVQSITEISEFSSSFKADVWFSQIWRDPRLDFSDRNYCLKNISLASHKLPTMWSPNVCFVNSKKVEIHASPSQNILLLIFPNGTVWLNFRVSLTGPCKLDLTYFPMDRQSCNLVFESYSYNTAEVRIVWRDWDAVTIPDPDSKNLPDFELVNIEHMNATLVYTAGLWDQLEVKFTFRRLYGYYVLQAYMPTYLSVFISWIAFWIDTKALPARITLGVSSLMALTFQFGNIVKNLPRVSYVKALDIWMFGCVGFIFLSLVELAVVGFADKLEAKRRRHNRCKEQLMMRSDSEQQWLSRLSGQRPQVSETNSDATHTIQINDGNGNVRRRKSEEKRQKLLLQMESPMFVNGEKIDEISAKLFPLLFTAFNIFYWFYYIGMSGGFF

human GABAρ1 [4] = biological target: T1, human GABAρ1; parameters: method as in Ochoa de la Paz et al., 2012; details: Table 1, ref Ochoa de la Paz et al., 2012, cited from earlier work; for IC50: read-out: GABA ρ1 (Human) IC50, oocytes
human GABAρ1 [5] = biological target: T1, human GABAρ1; test: Competition assays: GABA concentration-response curves in presence of 3-MT, oocytes; format: cell-based
[6] = receptor activated with GABA 3 µM
[7] = Fig. 7C, maximal concentration tested, DA 300 µM

For `COc1cc(CCN)ccc1O` [3-MT, 3-Methoxytyramine], the “GABA ρ1 (Human) Antagonist: Full or partial” value (“GABA ρ1 (Human) Antagonist” for short) (human GABAρ1 [1]; Table 1) was “full”, the “extent of inhibition of GABA currents at high concentrations” value (“extent of inhibition of GABA currents” for short) (human GABAρ1 [1]) was “Full inhibition” and the IC50 (human GABAρ1 [1]; read-out: GABA ρ1 (Human) IC50, Table 1, oocytes) was 285 ± 3 µM. The Emax (human GABAρ1 [1]) was 100 ± 2.17%, the “reversal potential of GABA currents” value (human GABAρ1 [2]) was -35.25 ± 1.04 mV and the “Efficacy % to inhibit GABA responses” value (human GABAρ1 [3]) was 51.65 ± 6.93%. The “decrease of potency on activated receptor versus co-application” value (“decrease of potency” below) (human GABAρ1 [3]; [6]) was 2 fold, the “activity on LGC-53” value (LGC-53) was “inactive” and the “LGC-53 EC50 (mM)” value (LGC-53; Table 1) was “N.E”. For the same compound, the “gating or modulation of LGC-53” value (LGC-53) was “Neither GABA nor 3-MT gated the channel or showed an evident modulatory effect”.
With `NCCCCO` [4-AM-1-OH, 4-Amino-1-butanol] the “GABA ρ1 (Human) Antagonist” value (human GABAρ1 [1]; Table 1) was “full”, the IC50 (human GABAρ1 [1]; Table 1, oocytes) was 3910 ± 544 µM and the Emax (human GABAρ1 [1]) was 98.3 ± 7.3%. For the same compound, the “Efficacy % to inhibit GABA responses” value (human GABAρ1 [3]) was 65.50 ± 4.77%, the “increase of potency on activated receptor versus co-application” value (human GABAρ1 [3]; receptor activated with GABA 3 µM, not statistically significant) was “about 25%” and the “LGC-53 EC50 (mM)” value (LGC-53; Table 1) was “N.E”.
With `CNC[C@H](O)c1ccc(O)c(O)c1` [AD, Adrenaline] the “GABA ρ1 (Human) IC50 (mM)” value (human GABAρ1 [1]; Table 1, oocytes) was “N.E”, the “effect on the responses generated by 3 μM GABA” value (human GABAρ1 [1]) was “failed to elicit any effect” and the “LGC-53 Agonist: Full or partial” value (LGC-53) was “partial”. For the same compound, the “agonist type on LGC-53” value (LGC-53) was “partial agonists”, the EC50 (LGC-53; LGC-53 EC50 (mM)) was 3.8 ± 0.803 mM and the Emax (LGC-53) was 59.2 ± 9.4%.
In the case of `NCCc1ccc(O)c(O)c1` [DA, Dopamine], the “currents generated by the compound alone in oocytes injected with human ρ1” value (human GABAρ1 [1]; DA up to 1 mM, no GABA) is reported as “did not generate evident currents”, the “extent of inhibition of GABA currents” value (human GABAρ1 [1]) is reported as “Full inhibition” and the Emax (human GABAρ1 [1]) is reported as 94.3 ± 5.84%. For the same compound, the “GABA ρ1 (Human) Antagonist” value (human GABAρ1 [4]) was “full”, the IC50 (human GABAρ1 [4]) was 210 ± 1.12 µM and the “Efficacy % to inhibit GABA responses” value (human GABAρ1 [3]) was 61.94 ± 6.66%. For the same compound, the “decrease of potency” value (human GABAρ1 [3]; [6]) was “around 10 fold”, the “LGC-53 Agonist: Full or partial” value (LGC-53) was “full” and the EC50 (LGC-53; EC50 on LGC-53) was 0.00415 ± 0.0011 mM. For the same compound, the EC50 (LGC-53; LGC-53 EC50 (mM)) was 0.0042 ± 0.001 mM.
In the case of `O=C(O)Cc1ccc(O)c(O)c1` [DOPAC, 3,4-Dihydroxyphenylacetic acid], the “GABA ρ1 (Human) Antagonist” value (human GABAρ1 [1]; Table 1) is reported as “partial”, the IC50 (human GABAρ1 [1]; Table 1, oocytes) is reported as 2250 ± 258 µM and the “extent of inhibition of GABA currents” value (human GABAρ1 [1]) is reported as “significantly different from the full inhibition”. For the same compound, the Emax (human GABAρ1 [1]) was 93.6 ± 2.41%, the “change in potency/efficacy between activated receptor and co-application protocols” value (human GABAρ1 [3]; [6]) was “did not show differences in the efficacy or potency” and the “LGC-53 EC50 (mM)” value (LGC-53; Table 1) was “N.E”.
For `NCCCC(=O)O` [GABA, γ-Aminobutyric acid], the “Hill number of GABA concentration-response curve” value (shortened to “Hill number”) (human GABAρ1 [5]; 3-MT at its IC25) was 1.38 ± 0.24, the “Hill number” value (human GABAρ1 [5]; 3-MT at its IC50) was 1.40 ± 0.27 and the “Hill number” value (human GABAρ1 [5]; 3-MT at its IC75) was 1.90 ± 0.36. For the same compound, the “Hill number” value (human GABAρ1 [5]; GABA alone) was 1.34 ± 0.37, the “reversal potential of GABA currents” value (human GABAρ1 [2]) was -35.07 ± 0.90 mV and the “activity on LGC-53” value (LGC-53) was “not modulated; also recorded: neither activated LGC-53 nor modulated the DA responses”. The “gating or modulation of LGC-53” value (LGC-53) was “Neither GABA nor 3-MT gated the channel or showed an evident modulatory effect”.
In the case of `COc1cc(CC(=O)O)ccc1O` [HVA, Homovanillic acid], the “GABA ρ1 (Human) Antagonist” value (human GABAρ1 [1]; Table 1) is reported as “partial”, the IC50 (human GABAρ1 [1]; Table 1, oocytes) is reported as 1970 ± 211 µM and the “extent of inhibition of GABA currents” value (human GABAρ1 [1]) is reported as “significantly different from the full inhibition”. For the same compound, the Emax (human GABAρ1 [1]) was 86.5 ± 1.89%, the “change in potency/efficacy between activated receptor and co-application protocols” value (human GABAρ1 [3]; [6]) was “did not show differences in the efficacy or potency” and the “LGC-53 EC50 (mM)” value (LGC-53; Table 1) was “N.E”.
In the case of `N[C@@H](Cc1ccc(O)c(O)c1)C(=O)O` [L-DOPA, L-3,4-dihydroxyphenylalanine], the “GABA ρ1 (Human) IC50 (mM)” value (human GABAρ1 [1]; Table 1, oocytes) is reported as “N.E” and the “LGC-53 EC50 (mM)” value (LGC-53; Table 1) is reported as “N.E”.
For `NC[C@H](O)c1ccc(O)c(O)c1` [NAD, Noradrenaline], the “GABA ρ1 (Human) IC50 (mM)” value (human GABAρ1 [1]; Table 1, oocytes) was “N.E”, the “effect on the responses generated by 3 μM GABA” value (human GABAρ1 [1]) was “failed to elicit any effect” and the EC50 (LGC-53) was 0.137 ± 0.072 mM. The “LGC-53 Agonist: Full or partial” value (LGC-53; Table 1) was “partial” and the Emax (LGC-53) was 61 ± 13%.
In the case of `NCCc1ccc(O)cc1` [Tyr, Tyramine], the “GABA ρ1 (Human) Antagonist” value (human GABAρ1 [4]) is listed as “full”, the IC50 (human GABAρ1 [4]) is listed as 550 ± 12 µM and the “agonist type on LGC-53” value (LGC-53) is listed as “partial agonists”. The Emax (LGC-53; [7]) was 64.7 ± 9.6%, the “LGC-53 Agonist: Full or partial” value (LGC-53; Table 1) was “partial” and the EC50 (LGC-53; Table 1, read-out: LGC-53 EC50) was 2.18 ± 0.482 mM.
In the case of `NCCc1ccccc1` [β-PEA, 2-Phenylethylamine], the IC50 (human GABAρ1 [1]) is reported as 1790 ± 104 µM, the “GABA ρ1 (Human) Antagonist” value (human GABAρ1 [1]; Table 1) is reported as “full” and the Emax (human GABAρ1 [1]) is reported as 97.3 ± 2.73%. For the same compound, the “Efficacy % to inhibit GABA responses” value (human GABAρ1 [3]) was 63.62 ± 11.44%, the “decrease of potency” value (human GABAρ1 [3]; [6]) was 2 fold and the EC50 (LGC-53) was 1.33 ± 0.433 mM. The “agonist type on LGC-53” value (LGC-53) was “partial agonists”, the Emax (LGC-53; [7]) was 48.5 ± 10.4% and the “LGC-53 Agonist: Full or partial” value (LGC-53; Table 1) was “partial”.
